Reference: patent US20150126582A1, “Combination Treatment of Multiple Myeloma” (Sevion Therapeutics, Inc., priority 2012, published 2015)

How the values were obtained:
RPMI 8226 myeloma cells = assay: RPMI 8226 multiple myeloma subcutaneous tumors in SCID mice, 6 weeks of dosing; settings: for tumor growth inhibited compared to control nanoparticles: end of 6 weeks of dosing
Method: SCID mice are injected subcutaneously with RPMI 8226 cells. […] Groups of six SCID/CB17 mice (3-5 weeks old) are injected with 12 million RPMI 8226 myeloma cells in 200 μL PBS in their right flank and treatment is initiated when the tumours reached a minimum size of 10 mm^3.
Control mice are injected intravenously two times per week with PEI complexes containing pCpG-mcs (empty vector) and control siRNA at a dose of 0.375 mg (nucleic acid)/kg. Mice receiving SNS01-T were injected intra-venously two times per week at 0.375 mg/kg. Mice treated with lenalidomide received 5 doses per week by intra-peritoneal injection of lenalidomide (Celgene) at doses of 15 mg/kg or 50 mg/kg. Mice receiving both SNS01-T and lenalidomide were dosed 2×/week with SNS01-T by intra-venous injection at 0.375 mg/kg and 5× per week with lenalidomide by intra-peritoneal injection at either 15 mg/kg or 50 mg/kg. […] Tumor volume is measured for all the mice in each group at least twice weekly.

[1] = system: human myeloma tumors derived from RPMI 8226 cells; assay: Additional study: RPMI 8226 myeloma tumors in mice, 2 cycles of treatment, 102 days; format: in vivo
Method: In an additional study, mice implanted with human myeloma tumors derived from RPMI 8226 cells were randomized into 4 groups and treated with control nanoparticles, or, either SNS01-T (0.375 mg/kg; i.v., twice per week), lenalidomide (50 mg/kg; i.p., 5× per week) or both. The mice received 2 cycles of treatment, 6 weeks and 5 weeks respectively, with an 11 day rest period between cycles. Mice, whose tumors were undetectable at the end of cycle 1, received no drug treatment in cycle 2 unless tumor reappeared. The mice were monitored for 2 weeks after the end of the second cycle of treatment. The total length of the study was 102 days.

Compound: Nc1cccc2c1CN(C1CCC(=O)NC1=O)C2=O (racemic) [lenalidomide, 3-(4-amino-oxo-1,3-dihydro-isoindol-2-yl)-piperidine-2,6-dione]
- tumor growth inhibited compared to control nanoparticles (RPMI 8226 myeloma cells; lenalidomide 15 mg/kg i.p. 5 doses/week (alone, or with SNS01-T 0.375 mg/kg i.v. 2x/week)): 51%
- tumor growth inhibited compared to control nanoparticles (RPMI 8226 myeloma cells; lenalidomide 50 mg/kg i.p. 5 doses/week (alone, or with SNS01-T 0.375 mg/kg i.v. 2x/week)): 78%
- surviving animals with undetectable tumors (RPMI 8226 myeloma cells; end of 6 weeks, lenalidomide alone, 15 mg/kg or 50 mg/kg i.p. 5x/week): No surviving animals
- median survival (RPMI 8226 myeloma cells; lenalidomide 15 mg/kg i.p. 5x/week): 53 days
- tumor growth inhibited compared to control nanoparticles ([1]; end of the second cycle of dosing, lenalidomide 50 mg/kg i.p. 5x per week (alone, or with SNS01-T 0.375 mg/kg i.v. twice per week)): 34%
- median survival ([1]; lenalidomide 50 mg/kg i.p. 5x per week, study length 102 days): 95 days
